Data published in US10682371B2, “Small molecule conjugates specifically activated in tumor microenvironment for targeting and use thereof” (priority 2014, dated 2020).
Where two headings read alike, the source gives them in different places.

How the values were obtained:
tumor CD8+ T cells = format: in vivo, C57 mice; details: CD8 positive cells in CD45 positive cells of tumor, flow cytometry
In short: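 Tumour tissue homogenised and single cells filtered, washed, then stained 1 h at ambient temperature with CD45-PE and CD8-FITC antibodies. After washes in PBS with 1% FBS, flow cytometry gave the fraction of CD8⁺ cells among CD45⁺ leucocytes.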

[1] = tested on: Human breast cancer MDA-MB435 tumor tissue homogenate; format: biochemical
Description: (§1) At 37 °C, sample compounds were added into 100 μg acidized tumor tissue homogenates (pH6.0) in a concentration of 1 mg/ml.
(§2) At 37 °C, sample compounds were added into 100 μg acidized human breast cancer (MDA-MB435) tumor tissue homogenates (pH6.0) in a concentration of 1 mg/ml.
(§3) […], sample compounds were added into 100 μg acidized tumor tissue homogenates (pH6.0) in a concentration of 1 mg/ml.
as §2
(§4) At 37 °C, sample compounds were added into 100 μg acidized tumor tissue homogenates in a concentration of 1 mg/ml.
(§5) In the experiments, at 37 °C, compounds were added into proteases in 100 μg acidized tumor tissue homogenates in a concentration of 1 mg/ml. […] Meanwhile certain compounds produced in the screening were compared and their activation efficiency in same tissue was analyzed.
(§6) At 37° C., compounds were added into proteases in 100 μg acidized tumor tissue homogenates in a concentration of 1 mg/ml.

[2] = tested on: Human ovarian cancer SK-OV-3 tumor tissue homogenate; format: biochemical; details: Human ovarian cancer SK-OV-3, 1 mg/ml
Description: as §1, §3, §4, §5, §6

[3] = tested on: Human renal cancer OS-RC-2 tumor tissue homogenate; format: biochemical; details: Human renal cancer OS-RC-2, 1 mg/ml
Description: as §1, §3, §4, §5, §6

[4] = tested on: Human non-small cell lung cancer A549 tumor tissue homogenate; format: biochemical; details: Human non-small cell lung cancer A549, 1 mg/ml
Description: as §1, §3, §4, §5, §6

[5] = tested on: Human chronic leukemia K562 tumor tissue homogenate; format: biochemical; details: Human chronic leukemia K562, 1 mg/ml
Description: as §1, §3, §4, §5, §6

[6] = tested on: Human liver cancer Hepg2 tumor tissue homogenate; format: biochemical; details: Human liver cancer Hepg2, 1 mg/ml
Description: as §1, §3, §4, §5, §6

[7] = tested on: Human pancreatic cancer Panc-1 tumor tissue homogenate; format: biochemical; details: Human pancreatic cancer Panc-1, 1 mg/ml
Description: as §1, §3, §4, §5, §6

[8] = tested on: Human prostate cancer PC-3 tumor tissue homogenate; format: biochemical; details: Human prostate cancer PC-3, 1 mg/ml
Description: as §1, §3, §4, §5, §6

[9] = tested on: Human colon cancer HT-29 tumor tissue homogenate; format: biochemical; details: Human colon cancer HT-29, 1 mg/ml
Description: as §1, §3, §4, §5, §6

D121 lung tumor cells = format: in vivo, C57 mice; details: for Size of tumor (mm^3) Day 18 / inhibitory rate on tumor % Day 18: immunized C57 mice; for Treatment effects on C57 mice, in words: compared to the control group and the other treatment groups; for Effect together with PDL1-antibody in promoting immunization and treatment, in words: combination with PDL1-antibody
In short: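 Endpoint is tumor inhibition rate from tumor size (mm^3) after weekly drug treatment for 4 weeks, begun once s.c. tumors from 10^6 live D121 cells reached 0.3-0.4 cm. Before challenge, C57 mice received three i.p. doses of 5×10^5 irradiated D121 cells, two weeks apart, or saline.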

[10] = Table 27, immunized C57 mice, D121
[11] = Human breast cancer MDA-MB435, 1 mg/ml, acidized homogenate pH6.0, Paclitaxel release by HPLC
[12] = acidized homogenate pH6.0, Paclitaxel release by HPLC
[13] = Table 27, D121 lung tumor, drugs weekly for 4 weeks
[14] = Table 34, acidized homogenate, Docetaxel release by HPLC
[15] = Table 39, D121, drugs 13.2 μmol/kg, PDL1-antibody 5 μg/kg, weekly for 4 weeks
[16] = Table 45, acidized homogenate, Docetaxel release by HPLC
[17] = Table 49, D121, drugs 13.2 μmol/kg, PDL1 antibody 5 μg/kg, weekly for 4 weeks

COCCOCCOCCOCCOCCOCC(=O)NCCCC[C@H](NC(=O)COCCOCCOCCOCCOCCOC)C(=O)N[C@H](C)C(=O)N[C@H](C)C(=O)N[C@H](CC(N)=O)C(=O)Nc1ccc(COC(=O)OC(C(=O)OC2C[C@@]3(O)[C@@H](OC(=O)c4ccccc4)[C@H]4[C@](C)(C(=O)[C@H](OC(C)=O)C(=C2C)C3(C)C)[C@@H](O)CC2OC[C@]24OC(C)=O)[C@@H](NC(=O)c2ccccc2)c2ccccc2)cc1 (stereo partly shown) [Compound A2]
CD8: CD45 (%) (tumor CD8+ T cells; [10]): 19.4% | Activation ratio (%) in homogenates from different tumor tissues [1, 11]: 94.4% | Activation ratio (%) in homogenates from different tumor tissues [2, 12]: 88.6% | Activation ratio (%) in homogenates from different tumor tissues [3, 12]: 94.5% | Activation ratio (%) in homogenates from different tumor tissues [4, 12]: 92.4% | Activation ratio (%) in homogenates from different tumor tissues [5, 12]: 76.3% | Activation ratio (%) in homogenates from different tumor tissues [6, 12]: 87.6% | Activation ratio (%) in homogenates from different tumor tissues [7, 12]: 93.8% | Activation ratio (%) in homogenates from different tumor tissues [8, 12]: 101.4% | Activation ratio (%) in homogenates from different tumor tissues [9, 12]: 92.9% | Size of tumor (mm^3) Day 18 (D121 lung tumor cells; [13]): 375.727 ± 247.3 mm^3 | inhibitory rate on tumor % Day 18 (D121 lung tumor cells; [13]): 77.74% | Treatment effects on C57 mice, in words (D121 lung tumor cells): greatly improved

COCCOCCOCCOCCOCCOCCOCCOCCOCCOCCOCCOCC(=O)NCCCC[C@H](NC(=O)COCCOCCOCCOCCOCCOCCOCCOCCOCCOCCOCCOC)C(=O)N[C@H](C)C(=O)N[C@H](C)C(=O)N[C@H](CC(N)=O)C(=O)Nc1ccc(COC(=O)OC(C(=O)OC2C[C@@]3(O)[C@@H](OC(=O)c4ccccc4)[C@H]4[C@](C)(C(=O)[C@H](OC(C)=O)C(=C2C)C3(C)C)[C@@H](O)CC2OC[C@]24OC(C)=O)[C@@H](NC(=O)c2ccccc2)c2ccccc2)cc1 (stereo partly shown) [Compound A3]
CD8: CD45 (%) (tumor CD8+ T cells; [10]): 17.3% | Activation ratio (%) in homogenates from different tumor tissues [1, 11]: 93.4% | activation efficiency (%) ([1]; Table 24, acidized human breast cancer (MDA-MB435) tumor tissue homogenates pH6.0, 1 mg/ml, Paclitaxel release by HPLC): 94.5% | Activation ratio (%) in homogenates from different tumor tissues [2, 12]: 82.8% | Activation ratio (%) in homogenates from different tumor tissues [3, 12]: 89.4% | Activation ratio (%) in homogenates from different tumor tissues [4, 12]: 84.4% | Activation ratio (%) in homogenates from different tumor tissues [5, 12]: 73.2% | Activation ratio (%) in homogenates from different tumor tissues [6, 12]: 86.5% | Activation ratio (%) in homogenates from different tumor tissues [7, 12]: 94.5% | Activation ratio (%) in homogenates from different tumor tissues [8, 12]: 99.3% | Activation ratio (%) in homogenates from different tumor tissues [9, 12]: 94.6% | Size of tumor (mm^3) Day 18 (D121 lung tumor cells; [13]): 360.393 ± 312.7 mm^3 | inhibitory rate on tumor % Day 18 (D121 lung tumor cells; [13]): 78.65% | Treatment effects on C57 mice, in words (D121 lung tumor cells): greatly improved

COCCOCC(=O)NCCCC[C@H](NC(=O)COCCOC)C(=O)N[C@H](C)C(=O)N[C@H](C)C(=O)N[C@H](CC(N)=O)C(=O)Nc1ccc(COC(=O)OC(C(=O)OC2C[C@@]3(O)[C@@H](OC(=O)c4ccccc4)[C@H]4[C@](C)(C(=O)[C@H](O)C(=C2C)C3(C)C)[C@@H](O)CC2OC[C@]24OC(C)=O)[C@@H](NC(=O)OC(C)(C)C)c2ccccc2)cc1 (stereo partly shown) [Compound B1]
CD8: CD45 (%) (tumor CD8+ T cells; Table 39, drugs 13.2 μmol/kg, PDL1-antibody 5 μg/kg): 18.9% | activation efficiency (%) ([1]; Table 34, Human breast cancer MDA-MB435, 1 mg/ml, acidized homogenate, Docetaxel release by HPLC): 93.5% | activation efficiency (%) [2, 14]: 93.1% | activation efficiency (%) [3, 14]: 90.9% | activation efficiency (%) [4, 14]: 91.2% | activation efficiency (%) [5, 14]: 69.0% | activation efficiency (%) [6, 14]: 76.3% | activation efficiency (%) [7, 14]: 86.9% | activation efficiency (%) [8, 14]: 76.1% | activation efficiency (%) [9, 14]: 83.9% | Size of tumor (mm^3) Day 18 (D121 lung tumor cells; [15]): 271.36 ± 157.56 mm^3 | inhibitory rate on tumor % Day 18 (D121 lung tumor cells; [15]): 83.25% | Effect together with PDL1-antibody in promoting immunization and treatment, in words (D121 lung tumor cells): excellent synergistic effect | Treatment effects on C57 mice, in words (D121 lung tumor cells): greatly improved

COCCOCC(=O)N[C@H](C)C(=O)N[C@H](C)C(=O)N[C@H](CC(N)=O)C(=O)Nc1ccc(COC(=O)OC(C(=O)OC2C[C@@]3(O)[C@@H](OC(=O)c4ccccc4)[C@H]4[C@](C)(C(=O)[C@H](O)C(=C2C)C3(C)C)[C@@H](O)CC2OC[C@]24OC(C)=O)[C@@H](NC(=O)OC(C)(C)C)c2ccccc2)cc1 (stereo partly drawn) [Compound D1, 2-(2-methoxyethoxy) acetyl-L-Ala-L-Ala-L-Asn-4-amino benzyl-Docetaxel]
CD8: CD45 (%) (tumor CD8+ T cells; Table 49, drugs 13.2 μmol/kg, PDL1 antibody 5 μg/kg): 18.5% | Activation ratio (%) in homogenates from different tumor tissues ([1]; Table 45, Human breast cancer MDA-MB435, 1 mg/ml, acidized homogenate, Docetaxel release by HPLC): 83.07% | Activation ratio (%) in homogenates from different tumor tissues [2, 16]: 79.56% | Activation ratio (%) in homogenates from different tumor tissues [3, 16]: 77.76% | Activation ratio (%) in homogenates from different tumor tissues [4, 16]: 77.76% | Activation ratio (%) in homogenates from different tumor tissues [5, 16]: 68.23% | Activation ratio (%) in homogenates from different tumor tissues [6, 16]: 85.77% | Activation ratio (%) in homogenates from different tumor tissues [7, 16]: 85.32% | Activation ratio (%) in homogenates from different tumor tissues [8, 16]: 87.57% | Activation ratio (%) in homogenates from different tumor tissues [9, 16]: 71.46% | Size of tumor (mm^3) Day 18 (D121 lung tumor cells; [17]): 324.45 mm^3 | inhibitory rate on tumor % Day 18 (D121 lung tumor cells; [17]): 77.2% | Effect together with PDL1-antibody in promoting immunization and treatment, in words (D121 lung tumor cells): excellent synergistic effect | Treatment effects on C57 mice, in words (D121 lung tumor cells): greatly improved
